Data set [1] concerns PC-3 cells. The data set can be described thus: Cellular processing (membrane-bound vs internalized activity). In kind it is cell-based, human. Particulars: 2 nM, continuous incubation 24 h, 37 °C, n = 3. The protocol: At pre-determined time points (1 h, 2 h, 4 h, 24 h) cells were incubated with 0.2 M glycine buffer (with 0.15 M NaCl, 4 M Urea, pH 2) for 5 min on ice to collect the membrane-bound activity. Thereafter, cells were incubated at 37 °C for 30 min with 1 M NaOH and collected. Activity content in those samples was considered internalized activity.

Data set [2] is described as follows: Biodistribution in mice bearing PC-3 xenografts. Type of data set: in vivo, Balb/c nu/nu mice. Particulars: female, Balb/c nu/nu, mouse, iv, total radioactivity, 3 h pi, 40–50 pmol iv, female Balb/c nu/nu mice with PC-3 xenografts, average ± SD, n = 3–4. Here is the method: (§1) Mice were sacrificed 3 h and 22 h pi by intraperitoneal injection of a lethal dose of Ketalar-Rompun solution (10 mg/mL Ketaminol (Intervet) and 1 mg/mL Rompun (Bayer); 20 μL solution/gram of body weight). Tumors were collected as well as samples of blood, lung, liver, spleen, pancreas, stomach, small intestine, kidneys, muscle, and bone. Gastrointestinal (GI) tract and carcass were also collected. Samples were weighed, and measured for activity content in the automated gamma counter. Corrections for background, spill-over and decay were performed for all measurements.
(§2) Biodistribution of [^68Ga]Ga-NOTA-PEG2-RM26 3 h pi was included for comparison. Mice were therefore injected with 40–50 pmol (250 kBq) ^68Ga-NOTA-PEG2-RM26, euthanized 3 h pi and samples were collected according to the protocol described above.

In data set [3] the target is T1, GRPR (Mus musculus, UniProt P21729).
T1 construct: Mice with GRPR-expressing PC-3 xenografts (implanted 21 d before the experiment) were used for all in vivo studies; from tissue; host or cells: PC-3 xenograft tumors in female Balb/c nu/nu mice
T1 sequence (P21729 whole entry): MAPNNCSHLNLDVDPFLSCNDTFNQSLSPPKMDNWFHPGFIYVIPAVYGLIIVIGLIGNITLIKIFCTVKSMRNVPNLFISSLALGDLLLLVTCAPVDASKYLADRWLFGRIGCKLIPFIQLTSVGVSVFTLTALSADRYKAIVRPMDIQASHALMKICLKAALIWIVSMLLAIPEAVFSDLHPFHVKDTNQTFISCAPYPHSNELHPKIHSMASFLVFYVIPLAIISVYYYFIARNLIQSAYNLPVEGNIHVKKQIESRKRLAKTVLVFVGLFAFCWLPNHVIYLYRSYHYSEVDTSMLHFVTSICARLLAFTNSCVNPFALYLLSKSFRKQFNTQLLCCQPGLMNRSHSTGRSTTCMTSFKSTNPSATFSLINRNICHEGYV
The data set can be described thus: In vivo specificity test (co-injection of non-labeled peptide). On the set-up: species or system Balb/c nu/nu mice. Particulars: 3 h pi, co-injection of 10 nmol non-labeled NOTA-PEG2-RM26, p < 0.002. Here is the method:
For the in vivo specificity test, mice in the blocking group were co-injected with 10 nmol of non-labeled NOTA-PEG2-RM26 and sacrificed 3 h pi and samples were collected according to the protocol described above.

Data set [4] is described as follows: Analysis of blood metabolites (radio-HPLC of plasma). Type of data set: in vivo. The note with it: 5 min pi, NMRI mice; for radiometal associated with intact peptide in blood plasma: 1.5 nmol (6.75–7.3 MBq). Here is the method: NMRI Mice were injected with 1.5 nmol (6.75–7.3 MBq) [^68Ga]Ga-NOTA-PEG2-RM26 and sacrificed 5 min pi by cervical dislocation. Immediately after blood was collected by heart puncture into a pre-chilled heparinized Eppendorf tube. Blood samples were centrifuged (10000RCF, 10 min at 4 °C), plasma was collected and mixed with equal amount of ice cold acetonitrile. The mixture was centrifuged (15,000 RCF, 10 min, 4 °C), the supernatant was collected and sterile filtered with a 0.2 µm PTFE syringe filter. The filtrate was analyzed on HPLC according to the method described above.

In data set [5] the test system is PC-3 xenografts. The data set can be described thus: Biodistribution in mice bearing PC-3 xenografts. Type of data set: in vivo, Balb/c nu/nu mice. The protocol: as §1, §2

Read-outs that look alike come from different tables or passages of the source.

As for `CC(C)C[C@H](NC(=O)C[C@H](O)[C@H](CC(C)C)NC(=O)[C@H](Cc1c[nH]cn1)NC(=O)CNC(=O)[C@@H](NC(=O)[C@H](C)NC(=O)[C@H](Cc1c[nH]c2ccccc12)NC(=O)[C@H](CCC(N)=O)NC(=O)[C@@H](Cc1ccccc1)NC(=O)COCCOCCNC(=O)CN1CCN(CC(=O)O)CCN(CC(=O)O)CC1)C(C)C)C(N)=O` [[^66Ga]Ga-NOTA-PEG2-RM26, metal not drawn], the “fraction of internalized activity, of cell-associated activity” value in data set [1] was 17%. In addition, the tissue uptake at 3 h was determined as 0.5 ± 0.3 %ID/g in data set [2] (bone, read-out: Uptake, Bone); 1.7 ± 0.4 %ID/g in data set [2] (kidney, read-out: Uptake, Kidney); 0.28 ± 0.06 %ID/g in data set [2] (liver, read-out: Uptake, Liver); 0.5 ± 0.4 %ID/g in data set [2] (lung, read-out: Uptake, Lung); 3.4 ± 0.7 %ID/g in data set [2] (pancreas, read-out: Uptake, Pancreas); 1.9 ± 0.4 %ID/g in data set [2] (stomach, read-out: Uptake, Stomach). The tissue uptake at 3 h in data set [2] (tumor (PC-3 xenograft), read-out: Uptake, Tumor) came out at 14 ± 1 %ID/g; in data set [2] (whole blood, read-out: Uptake, Blood), 0.15 ± 0.06 %ID/g. Also, in data set [3], the “uptake in pancreas, blocked vs non-blocked” value is given as “significant decrease”.

Turning to `CC(C)C[C@H](NC(=O)C[C@H](O)[C@H](CC(C)C)NC(=O)[C@H](Cc1c[nH]cn1)NC(=O)CNC(=O)[C@@H](NC(=O)[C@H](C)NC(=O)[C@H](Cc1c[nH]c2ccccc12)NC(=O)[C@H](CCC(N)=O)NC(=O)[C@@H](Cc1ccccc1)NC(=O)COCCOCCNC(=O)CN1CCN(CC(=O)O)CCN(CC(=O)O)CC1)C(C)C)C(N)=O` [[^68Ga]Ga-NOTA-PEG2-RM26, metal not drawn], the “free gallium, share of activity in blood plasma” value in data set [4] was 6%. In addition, the “radiometal associated with intact peptide in blood plasma” value is on record as “up to 57%” in data set [4] and “up to 60%” in data set [4] (listed as gallium labeled NOTA-PEG2-RM26).

Take `CC(C)C[C@H](NC(=O)C[C@H](O)[C@H](CC(C)C)NC(=O)[C@H](Cc1c[nH]cn1)NC(=O)CNC(=O)[C@@H](NC(=O)[C@H](C)NC(=O)[C@H](Cc1c[nH]c2ccccc12)NC(=O)[C@H](CCC(N)=O)NC(=O)[C@@H](Cc1ccccc1)NC(=O)COCCOCCNC(=O)CN1CCN(CC(=O)O)CCN(CC(=O)O)CC1)C(C)C)C(N)=O` [[^66Ga]Ga-NOTA-PEG2-RM26] [metal not drawn]: in data set [5] (3 to 22 h pi), the “change of uptake in bone during the observation period” value was “increased”. Besides, the “activity retained in tumors from 3 to 22 h pi” value in data set [5] (PC-3 xenografts) is given as “approximately 50%”. In addition, in data set [5] (p < 0.004), the “change of uptake in GRPR-expressing pancreas from 3 to 22 h pi” value is “decreased significantly”.

The values above are taken from PMC7878787 (Scientific Reports, 2021).
